# Test results: US20260069626A1, “Compositions and Methods to Protect and Enhance Structural and Functional Integrity of the Intestinal Glycocalyx” (Calroy Health Sciences, LLC, priority 2023, published 2026)
# How the values were obtained:
# [1] = tested on: mouse intestinal glycocalyx; test: DSS-treated mice: WGA-FITC immunofluorescence of colon glycocalyx (Example 3); assay type: in vivo; conditions: for Average Florescence Intensity of Mouse Intestinal Glycocalyx after WGA-FITC Staining (AVI): oral mg/kg/day per Table IV: single agents 100, 3′-SL + 6′-SL 100 each, HMOs 50 each + COS 100; for mouse intestinal glycocalyx (FIG. 8, FIG. 9): oral, doses of Table IV
# Experimental: Male C57BL/6J mice (18-20 g) of 6 weeks old were housed under controlled conditions with a constant temperature (23±2° C.), stable humidity, and a 12-hour light/dark cycle. After a one-week acclimatization period, the mice were randomly divided into 7 groups, with 5 mice per group: Control, DSS, DSS+3′-SL, DSS+6′-SL, DSS+5-ASA, DSS+6′-SL+3′-SL, and DSS+HMOs+COS. The control group received sterile water for 19 days. The DSS group was given 4% (wt/vol) DSS in their drinking water from days 8-14, with daily oral gavage of sterile water for 11 days. The other groups were treated with 3% DSS in their drinking water from days 8-14, along with oral administration of various functional glycans (mg/kg/day) of COS up to the 19th day (See Experimental Design in Table III). The DSS solution was replaced every two days to maintain its bioactivity. Mouse body weight, stool consistency, and rectal bleeding were monitored daily, alongside observations of coat sheen, mental state, and activity levels.
# Immunofluorescence staining of mouse colon tissue was performed using the following procedure. Paraffin sections were prepared from the distal colon, 1 cm from the anus. Deparaffinization and rehydration were performed with xylene and ethanol, as follows: xylene (5 min×2), 100% ethanol (5 min×2), 90% ethanol (5 min×1), 80% ethanol (5 min×1), 70% ethanol (5 min×1), and deionized water (10 s). Endogenous peroxidase activity was quenched with 0.75% hydrogen peroxide for 10 minutes, followed by PBS washes. Antigen retrieval was performed by boiling the sections in 0.01 mol/L sodium citrate for 30 minutes. For WGA staining, sections were incubated overnight at 4° C. with 0.1 μg/μL FITC-WGA in PBS (40 μL per sample). After washing with PBS, nuclei were counterstained with DAPI and sections were mounted with an anti-fade medium. The stained sections were visualized under a fluorescence microscope, and the colonic mucosal glycocalyx was quantified using ImageJ software.
# [2] = tested on: Caco-2 intestinal epithelial cell glycocalyx; test: Prevention/repair of DSS damage to Caco-2 glycocalyx, microfluidic chip, WGA-FITC (Example 2); assay type: cell-based; conditions: 2% DSS, single agents 200 μg/ml, 6′-SL and 3′-SL each 100 μg/ml, 100 μg/ml COS with 50 μg/ml each of 6′-SL, 2′-FL
# Experimental: Using the same microfluidic chip model in Example 1, different functional glycans of RS, COS and hMO, and some combinations were evaluated for their capability to prevent and repair the damages of Caco-2 intestinal epithelial cell glycocalyx caused by DSS. […] In addition to DSS, a positive control of 5-aminosalicylic acid (5-ASA), RS, COS, different hMOS, and a combination of hMOs and COS at different concentrations in phosphate-buffered saline (PBS) with water were introduced into microfluidic chips for testing their effects on the intestinal glycocalyx in the presence of DSS.
# FIG. 1 depicts the images of the intestinal epithelial cell glycocalyx and nucleus stained by WGA-FITC individually and together. […] Briefly, 2% DSS caused a significant decrease of intestinal glycocalyx as measured by WGA fluorescence intensity.
# [3] = tested on: C57BL/6J mice treated with DSS; test: DSS-treated mice: body weight and Disease Activity Index (Example 3); assay type: in vivo, mouse; conditions: oral, doses of Table IV
# Experimental: Male C57BL/6J mice (18-20 g) of 6 weeks old were housed under controlled conditions with a constant temperature (23±2° C.), stable humidity, and a 12-hour light/dark cycle. After a one-week acclimatization period, the mice were randomly divided into 7 groups, with 5 mice per group: Control, DSS, DSS+3′-SL, DSS+6′-SL, DSS+5-ASA, DSS+6′-SL+3′-SL, and DSS+HMOs+COS. The control group received sterile water for 19 days. The DSS group was given 4% (wt/vol) DSS in their drinking water from days 8-14, with daily oral gavage of sterile water for 11 days. […] Mouse body weight, stool consistency, and rectal bleeding were monitored daily, alongside observations of coat sheen, mental state, and activity levels. The Disease Activity Index (DAI) was used to assess colitis severity, calculated as the mean of the scores for weight loss, stool consistency, and rectal bleeding as described below. Mice were weighed daily at the same time, with the percentage of weight loss compared to the end of the acclimation period: <1% scored 0; 1-5% scored 1; 5-10% scored 2; 10-20% scored 3; >20% scored 4. Stool consistency was also evaluated daily: normal stool scored 0; soft but formed stool scored 1; paste-like stool scored 2; liquid stool scored 3. […] The DAI was calculated as the average of these three scores. […]
smiles,measurement,setting,value
"CC(=O)N[C@H]1[C@H]([C@H](O)[C@H](O)CO)O[C@@](O[C@H]2[C@@H](O)[C@@H](CO)O[C@@H](O[C@H]3[C@H](O)[C@@H](O)C(O)O[C@@H]3CO)[C@@H]2O)(C(=O)O)C[C@@H]1O (stereo partly drawn) [3′-SL, 3′-sialyllactose]",Average Florescence Intensity of Mouse Intestinal Glycocalyx after WGA-FITC Staining (AVI),[1],2.45
same,"mouse intestinal glycocalyx (FIG. 8, FIG. 9)",[1],increased
"Nc1ccc(O)c(C(=O)O)c1 [5-ASA, 5-aminosalicylic acid, reference compound]",Average Florescence Intensity of Mouse Intestinal Glycocalyx after WGA-FITC Staining (AVI),[1],2.56
same,"damage of the intestinal glycocalyx caused by DSS (WGA fluorescence intensity, FIG. 1-2)",[2],significantly prevented the damage
same,DAI at the end of the study compared to DSS only (FIG. 6),[3],significantly reduced
same,body weight at the end of the study compared to DSS only (FIG. 4),[3],significant increase
"CC(=O)N[C@H]1[C@H]([C@H](O)[C@H](O)CO)O[C@@](OC[C@H]2O[C@@H](O[C@H]3[C@H](O)[C@@H](O)[C@H](O)O[C@@H]3CO)[C@H](O)[C@@H](O)[C@H]2O)(C(=O)O)C[C@@H]1O [6′-SL, 6′-sialyllactose]",Average Florescence Intensity of Mouse Intestinal Glycocalyx after WGA-FITC Staining (AVI),[1],2.75
same,"mouse intestinal glycocalyx (FIG. 8, FIG. 9)",[1],increased
same,"damage of the intestinal glycocalyx caused by DSS (WGA fluorescence intensity, FIG. 1-2)",[2],significantly prevented the damage
